We go through one molecule from PMC7180948, “New Insights into 4-Anilinoquinazolines as Inhibitors of Cardiac Troponin I–Interacting Kinase (TNNi3K)” (Molecules, 2020).

Common to all, as to assay: biochemical
Holding throughout (parameters): KINOMEscan competition binding panel (Eurofins DiscoverX), single concentration, % inhibition
Holding throughout (details): read-out: 7 at 1 µM % inhibition

One test deals with AKT3 (Homo sapiens, UniProt Q9Y243). On the procedure:
(§1) KinomeScan® Assay on 7 and 15 was performed as previously described by EuroFins DiscoverX [24]. GSK114 (7) and 15 were submitted for a KINOMEscan® assay to explore the selectivity profile across >400 human kinases at a compound concentration of 1 µM. […] GSK114 (7) is a narrow-spectrum TNNi3K inhibitor but has some potent off-targets including GAK which has been previously reported for this chemotype. […] If utilized together this set of compounds could be useful to investigate TNNi3K biology.

A further test addresses T1, CDC2L5 (Homo sapiens, UniProt Q14004).
T1 construct: gene CDK13
As to the method:
as §1

For a further test, the target named is CSNK1G3 (Homo sapiens, UniProt Q9Y6M4). On the procedure: as §1
A further test has as its target DYRK1B (Homo sapiens, UniProt Q9Y463). As to the method: as §1
In another test the target is EGFR (Homo sapiens, UniProt P00533). As to the method:
as §1

The target in test [1] is EGFR(L747-S752del, P753S) (Homo sapiens, UniProt P00533, DEL747-752/P753S). As to the method: as §1
The next test addresses EGFR(S752-I759del) (Homo sapiens, UniProt P00533, DEL752-759). On the procedure:
as §1

In the next test the target is EGFR(T790M) (Homo sapiens, UniProt P00533, T790M). On the procedure:
as §1

In the next test the target is EPHA5 (Homo sapiens, UniProt P54756). On the procedure: as §1
The target in another test is T2, ERK8 (Homo sapiens, UniProt Q8TD08).
T2 construct: gene MAPK15
On the procedure: as §1

The target in another test is GRK7 (Homo sapiens, UniProt Q8WTQ7). On the procedure:
as §1

A further test addresses T3, JNK2 (Homo sapiens, UniProt P45984).
T3 construct: gene MAPK9
As to the method: as §1

The target of the next test is KIT-autoinhibited (Homo sapiens, UniProt P10721). On the procedure: as §1
The target of the next test is MAP4K3 (Homo sapiens, UniProt Q8IVH8). On the procedure:
as §1

The target in the next test is T4, MRCKB (Homo sapiens, UniProt Q9Y5S2).
T4 construct: gene CDC42BPB
On the procedure:
as §1

For another test, the target named is NEK9 (Homo sapiens, UniProt Q8TD19). On the procedure:
as §1

The next test addresses PIK3CG (Homo sapiens, UniProt P48736). As to the method: as §1
In another test the target is PRKCE (Homo sapiens, UniProt Q02156). As to the method: as §1
Another test addresses PRKG1 (Homo sapiens, UniProt Q13976). On the procedure: as §1
Another test has as its target T5, QSK (Homo sapiens, UniProt Q9Y2K2).
T5 construct: gene SIK3
On the procedure: as §1

The target of a further test is STK33 (Homo sapiens, UniProt Q9BYT3). On the procedure: as §1
Another test deals with TBK1 (Homo sapiens, UniProt Q9UHD2). As to the method: as §1
A further test has as its target VRK2 (Homo sapiens, UniProt Q86Y07). On the procedure: as §1
For a further test, the target named is WNK1 (Homo sapiens, UniProt Q9H4A3). As to the method: as §1

PIK3CG, sequence (P48736 whole entry): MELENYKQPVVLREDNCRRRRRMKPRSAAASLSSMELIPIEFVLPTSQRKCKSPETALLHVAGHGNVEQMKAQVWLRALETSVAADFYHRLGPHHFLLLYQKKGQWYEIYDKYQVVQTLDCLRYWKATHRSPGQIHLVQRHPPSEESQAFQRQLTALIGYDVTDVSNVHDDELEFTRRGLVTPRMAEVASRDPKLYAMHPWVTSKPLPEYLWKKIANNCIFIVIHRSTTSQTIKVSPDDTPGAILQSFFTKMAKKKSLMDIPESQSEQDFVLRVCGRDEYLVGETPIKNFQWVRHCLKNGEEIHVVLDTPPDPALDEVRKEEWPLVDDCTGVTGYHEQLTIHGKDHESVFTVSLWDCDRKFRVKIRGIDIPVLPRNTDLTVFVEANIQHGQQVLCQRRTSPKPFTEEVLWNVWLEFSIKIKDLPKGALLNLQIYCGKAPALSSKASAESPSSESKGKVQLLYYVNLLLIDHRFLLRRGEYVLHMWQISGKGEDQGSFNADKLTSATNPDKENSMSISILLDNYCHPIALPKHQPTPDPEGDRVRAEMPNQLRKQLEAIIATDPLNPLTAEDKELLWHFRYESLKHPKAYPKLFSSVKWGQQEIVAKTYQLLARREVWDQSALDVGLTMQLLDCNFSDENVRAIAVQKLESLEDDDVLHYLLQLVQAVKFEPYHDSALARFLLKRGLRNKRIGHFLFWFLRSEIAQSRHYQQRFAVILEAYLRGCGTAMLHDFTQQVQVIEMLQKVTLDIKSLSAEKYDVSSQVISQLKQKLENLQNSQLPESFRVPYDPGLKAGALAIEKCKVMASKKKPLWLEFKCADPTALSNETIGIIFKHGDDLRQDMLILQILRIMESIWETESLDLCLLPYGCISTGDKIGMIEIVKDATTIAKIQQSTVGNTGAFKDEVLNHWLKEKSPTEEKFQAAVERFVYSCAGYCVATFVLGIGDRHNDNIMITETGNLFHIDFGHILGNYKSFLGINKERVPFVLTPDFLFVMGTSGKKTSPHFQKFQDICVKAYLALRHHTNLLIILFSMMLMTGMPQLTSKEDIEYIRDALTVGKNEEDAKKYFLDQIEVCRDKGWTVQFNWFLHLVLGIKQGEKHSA
AKT3, sequence (Q9Y243 whole entry): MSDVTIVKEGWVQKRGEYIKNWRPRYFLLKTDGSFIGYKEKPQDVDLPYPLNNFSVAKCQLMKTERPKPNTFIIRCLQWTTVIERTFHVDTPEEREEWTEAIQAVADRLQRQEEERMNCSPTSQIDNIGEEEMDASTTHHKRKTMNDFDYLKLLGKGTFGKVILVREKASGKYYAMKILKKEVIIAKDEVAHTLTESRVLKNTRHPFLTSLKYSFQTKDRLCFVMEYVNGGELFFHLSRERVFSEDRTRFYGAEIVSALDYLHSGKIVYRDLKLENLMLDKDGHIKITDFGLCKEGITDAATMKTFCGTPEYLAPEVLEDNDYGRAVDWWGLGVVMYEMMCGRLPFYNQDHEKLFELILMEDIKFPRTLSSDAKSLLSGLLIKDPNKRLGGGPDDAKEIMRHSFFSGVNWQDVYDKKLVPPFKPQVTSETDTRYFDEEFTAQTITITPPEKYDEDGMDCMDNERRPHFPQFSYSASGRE
T3 sequence (P45984 whole entry): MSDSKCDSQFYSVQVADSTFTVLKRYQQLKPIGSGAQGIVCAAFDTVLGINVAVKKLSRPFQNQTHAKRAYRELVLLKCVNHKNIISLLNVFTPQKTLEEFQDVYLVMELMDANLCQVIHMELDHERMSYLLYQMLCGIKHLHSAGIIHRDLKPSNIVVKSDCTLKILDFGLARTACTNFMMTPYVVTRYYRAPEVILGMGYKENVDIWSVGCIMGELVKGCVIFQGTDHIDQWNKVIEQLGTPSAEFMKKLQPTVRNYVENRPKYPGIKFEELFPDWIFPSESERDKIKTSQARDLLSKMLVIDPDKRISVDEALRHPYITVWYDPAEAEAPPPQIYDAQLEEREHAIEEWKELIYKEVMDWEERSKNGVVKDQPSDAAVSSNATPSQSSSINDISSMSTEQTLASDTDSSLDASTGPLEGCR
T5 sequence (Q9Y2K2 whole entry): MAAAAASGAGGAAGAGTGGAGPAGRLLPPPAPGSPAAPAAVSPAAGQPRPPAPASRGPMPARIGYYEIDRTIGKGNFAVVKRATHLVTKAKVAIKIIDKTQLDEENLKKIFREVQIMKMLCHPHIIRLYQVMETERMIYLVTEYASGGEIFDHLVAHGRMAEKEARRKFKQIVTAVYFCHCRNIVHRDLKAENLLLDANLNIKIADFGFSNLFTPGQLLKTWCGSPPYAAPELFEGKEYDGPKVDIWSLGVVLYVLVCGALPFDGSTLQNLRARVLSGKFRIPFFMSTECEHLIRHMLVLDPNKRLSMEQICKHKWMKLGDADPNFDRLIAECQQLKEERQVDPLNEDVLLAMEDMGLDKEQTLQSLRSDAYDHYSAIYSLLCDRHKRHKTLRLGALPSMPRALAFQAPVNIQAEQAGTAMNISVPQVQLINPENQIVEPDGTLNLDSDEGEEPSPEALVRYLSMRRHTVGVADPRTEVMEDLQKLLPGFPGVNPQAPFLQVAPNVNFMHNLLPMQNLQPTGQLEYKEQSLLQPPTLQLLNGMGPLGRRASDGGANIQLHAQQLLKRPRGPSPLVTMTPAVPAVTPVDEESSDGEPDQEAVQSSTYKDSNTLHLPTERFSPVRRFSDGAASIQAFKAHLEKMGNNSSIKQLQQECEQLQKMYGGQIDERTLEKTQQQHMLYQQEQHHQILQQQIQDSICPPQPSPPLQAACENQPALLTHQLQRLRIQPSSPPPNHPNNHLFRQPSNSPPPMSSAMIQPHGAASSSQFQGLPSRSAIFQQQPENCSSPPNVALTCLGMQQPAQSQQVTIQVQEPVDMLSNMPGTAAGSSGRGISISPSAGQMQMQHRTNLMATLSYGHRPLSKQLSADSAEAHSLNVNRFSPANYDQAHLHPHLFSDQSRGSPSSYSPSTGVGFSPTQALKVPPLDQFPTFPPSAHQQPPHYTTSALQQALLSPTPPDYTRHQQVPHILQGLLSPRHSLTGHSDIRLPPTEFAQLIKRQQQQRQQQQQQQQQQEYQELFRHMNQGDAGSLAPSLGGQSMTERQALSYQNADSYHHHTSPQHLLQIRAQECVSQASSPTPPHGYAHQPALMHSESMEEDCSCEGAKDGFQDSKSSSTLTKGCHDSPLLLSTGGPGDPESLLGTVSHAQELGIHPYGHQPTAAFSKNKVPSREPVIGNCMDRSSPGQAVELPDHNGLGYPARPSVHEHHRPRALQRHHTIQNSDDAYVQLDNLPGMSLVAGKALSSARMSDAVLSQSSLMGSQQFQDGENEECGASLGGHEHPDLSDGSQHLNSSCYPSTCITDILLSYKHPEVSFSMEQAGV
T1 sequence (Q14004 whole entry): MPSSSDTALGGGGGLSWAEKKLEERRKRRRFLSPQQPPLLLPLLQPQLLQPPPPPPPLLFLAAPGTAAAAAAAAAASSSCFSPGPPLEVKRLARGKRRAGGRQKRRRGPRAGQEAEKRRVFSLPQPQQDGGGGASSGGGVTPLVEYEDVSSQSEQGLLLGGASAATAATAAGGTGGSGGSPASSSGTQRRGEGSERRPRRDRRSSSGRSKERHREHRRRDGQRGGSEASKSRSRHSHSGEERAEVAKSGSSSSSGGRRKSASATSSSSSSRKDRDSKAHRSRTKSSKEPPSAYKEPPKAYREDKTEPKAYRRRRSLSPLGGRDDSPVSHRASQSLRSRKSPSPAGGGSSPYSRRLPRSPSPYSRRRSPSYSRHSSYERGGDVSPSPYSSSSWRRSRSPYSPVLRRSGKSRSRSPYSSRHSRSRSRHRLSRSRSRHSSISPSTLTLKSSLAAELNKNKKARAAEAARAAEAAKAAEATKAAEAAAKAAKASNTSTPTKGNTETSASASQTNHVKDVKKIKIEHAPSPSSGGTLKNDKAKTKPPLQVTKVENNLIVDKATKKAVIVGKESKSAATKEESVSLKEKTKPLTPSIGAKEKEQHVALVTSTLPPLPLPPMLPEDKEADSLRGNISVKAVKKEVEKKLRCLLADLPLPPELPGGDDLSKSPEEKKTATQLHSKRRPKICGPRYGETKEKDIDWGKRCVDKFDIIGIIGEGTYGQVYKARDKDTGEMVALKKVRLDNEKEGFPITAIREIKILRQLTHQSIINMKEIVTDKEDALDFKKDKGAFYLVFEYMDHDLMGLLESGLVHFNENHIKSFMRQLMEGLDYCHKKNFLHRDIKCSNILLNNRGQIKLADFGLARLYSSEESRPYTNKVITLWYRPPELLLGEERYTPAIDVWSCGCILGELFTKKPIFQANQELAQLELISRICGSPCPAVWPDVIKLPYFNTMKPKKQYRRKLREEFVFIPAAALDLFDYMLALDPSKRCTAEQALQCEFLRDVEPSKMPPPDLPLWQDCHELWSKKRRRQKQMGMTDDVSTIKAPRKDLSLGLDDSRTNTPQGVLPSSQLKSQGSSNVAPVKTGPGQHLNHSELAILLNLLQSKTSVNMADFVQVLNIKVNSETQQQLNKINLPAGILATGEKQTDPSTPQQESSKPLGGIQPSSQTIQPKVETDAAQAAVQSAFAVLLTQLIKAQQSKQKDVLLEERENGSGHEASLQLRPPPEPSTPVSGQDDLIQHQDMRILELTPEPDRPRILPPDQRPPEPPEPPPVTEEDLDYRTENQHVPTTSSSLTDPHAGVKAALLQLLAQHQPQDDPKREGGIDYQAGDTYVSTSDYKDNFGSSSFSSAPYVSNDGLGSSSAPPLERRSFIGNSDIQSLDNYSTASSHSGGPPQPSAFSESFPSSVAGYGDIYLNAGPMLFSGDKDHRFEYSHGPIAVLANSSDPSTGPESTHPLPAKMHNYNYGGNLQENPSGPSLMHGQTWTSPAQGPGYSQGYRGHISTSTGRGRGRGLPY

For `CNS(=O)(=O)c1ccc(N(C)C)c(Nc2ncnc3cc(OC)c(OC)cc23)c1` [compound 7, 3-((6,7-dimethoxyquinazolin-4-yl)amino)-4-(dimethylamino)-N-methylbenzenesulfonamide], the inhibition at 1 µM is 0% on AKT3; 0% at CDC2L5; 11% at CSNK1G3; 0% on DYRK1B; 0% at EGFR; 0% in test [1]. For the same molecule, the inhibition at 1 µM was determined as 29% on EGFR(S752-I759del); 25% on EGFR(T790M); 0% at EPHA5; 13% on ERK8; 23% at GRK7; 0% at JNK2. Moreover, the inhibition at 1 µM on KIT-autoinhibited stood at 22%; at MAP4K3, 0%; at MRCKB, 0%; at NEK9, 0%; at PIK3CG, 45%; at PRKCE it was 0%. The inhibition at 1 µM was 0% at PRKG1; 52% on QSK; 6% on STK33; 0% on TBK1; 29% on VRK2; 62% on WNK1.
